The data set in a line: activity coefficient (dimensionless); of the first substance listed, at infinite dilution; xn = mol fraction of the nth substance listed. To be noted: 100 kPa, Liquid, Chromatography, x1 = 0.

Numbers after ± are expanded uncertainties.

For the molecule `CCCCCCCC` [octane] + CCCC[N+]1(C)CCCC1.N#CN=C=[N-], the activity coefficient came out at 119 ± 13 (313.15 K); 111 ± 12 (323.15 K); 96 ± 10 (343.15 K); 86 ± 9.1 (363.15 K); 81 ± 8.5 (373.15 K).
For `CCC(C)O` (stereo not given) [butan-2-ol] + CCCC[N+]1(C)CCCC1.N#CN=C=[N-], in that order: 0.875 ± 0.09, 0.888 ± 0.091, 0.859 ± 0.088, 0.869 ± 0.089 and 0.881 ± 0.09.
The matching figures for `Cc1ccccc1` [toluene] + CCCC[N+]1(C)CCCC1.N#CN=C=[N-]: 2.07 ± 0.22, 2.14 ± 0.22, 2.3 ± 0.24, 2.43 ± 0.26 and 2.48 ± 0.26.
For `C=CCCCCCC` [oct-1-ene] + CCCC[N+]1(C)CCCC1.N#CN=C=[N-], the activity coefficient reads like this: (313.15 K) 47.8 ± 5; (323.15 K) 46.3 ± 4.9; (343.15 K) 42.8 ± 4.5; (363.15 K) 40.3 ± 4.2; (373.15 K) 39 ± 4.1.
For `CC(C)CO` [2-methyl-1-propanol] + CCCC[N+]1(C)CCCC1.N#CN=C=[N-], in that order: 0.872 ± 0.089, 0.835 ± 0.086, 0.785 ± 0.081, 0.786 ± 0.081 and 0.764 ± 0.079.
The matching figures for `C1CCOC1` [tetrahydrofuran] + CCCC[N+]1(C)CCCC1.N#CN=C=[N-]: 1.34 ± 0.14, 1.39 ± 0.14, 1.48 ± 0.15, 1.56 ± 0.16 and 1.6 ± 0.17.
Consider `CCC(=O)OC` [methyl propanoate] + CCCC[N+]1(C)CCCC1.N#CN=C=[N-], for which the activity coefficient by setting is: (313.15 K) 2.07 ± 0.22; (323.15 K) 2.09 ± 0.22; (343.15 K) 2.22 ± 0.23; (363.15 K) 2.33 ± 0.24; (373.15 K) 2.4 ± 0.25.
As to `CC#N` [acetonitrile] + CCCC[N+]1(C)CCCC1.N#CN=C=[N-], the activity coefficient is, setting by setting: (313.15 K) 0.659 ± 0.069; (323.15 K) 0.668 ± 0.07; (343.15 K) 0.693 ± 0.072; (363.15 K) 0.72 ± 0.08; (373.15 K) 0.728 ± 0.076.
Consider `CC(C)OC(C)C` [diisopropyl ether] + CCCC[N+]1(C)CCCC1.N#CN=C=[N-], for which the activity coefficient is 19.4 ± 2 (313.15 K); 18.8 ± 2 (323.15 K); 19.1 ± 2 (343.15 K); 18.6 ± 2 (363.15 K); 18.3 ± 1.9 (373.15 K).
For `CCCCO` [butan-1-ol] + CCCC[N+]1(C)CCCC1.N#CN=C=[N-], in that order: 0.897 ± 0.092, 0.873 ± 0.089, 0.844 ± 0.087, 0.836 ± 0.086 and 0.814 ± 0.084.
The matching figures for `CCC[N+](=O)[O-]` [1-nitropropane] + CCCC[N+]1(C)CCCC1.N#CN=C=[N-]: 0.721 ± 0.075, 0.74 ± 0.077, 0.789 ± 0.081, 0.827 ± 0.085 and 0.838 ± 0.086.
The matching figures for `CCCC=O` [butanal] + CCCC[N+]1(C)CCCC1.N#CN=C=[N-]: 1.4 ± 0.14, 1.46 ± 0.15, 1.53 ± 0.16, 1.62 ± 0.17 and 1.67 ± 0.17.
For the molecule `Cc1ccc(C)cc1` [1,4-dimethylbenzene] + CCCC[N+]1(C)CCCC1.N#CN=C=[N-], the activity coefficient runs as follows: (313.15 K) 3.24 ± 0.34; (323.15 K) 3.24 ± 0.34; (343.15 K) 3.47 ± 0.36; (363.15 K) 3.63 ± 0.38; (373.15 K) 3.73 ± 0.39.

(Values after the NIST ThermoML archive (doi:10.1016/j.fluid.2018.06.013).)
